Results published in patent US20230172924A1, “THERAPEUTIC AGENT FOR BREAST CANCER” (Eisai R&D Management Co., Ltd., priority 2020, published 2023).

Experiments:
[1] = tested on: human-derived breast cancer cell line MCF-7-hCYP19A1; assay: Cell number (CellTiter Glo 2.0 emission) of MCF-7-hCYP19A1 cells with Compound A and aromatase inhibitors; assay type: cell-based; settings: Compound A 1,000 nmol/L, 7 days culture with androstenedione, FGF2, FGF10, n=3
[2] = tested on: human breast cancer patient-derived tumor (OD-BRE-0438); assay: Antitumor effect of compound A and fulvestrant on OD-BRE-0438 patient-derived tumor subcutaneously transplanted in NOD-SCID mice; assay type: in vivo; settings: fulvestrant 250 mg/kg s.c. days 0 and 7, combination both; for Average tumor volume after starting drug administration, Day 0: Day 0, compound A 25 mg/kg oral once a day; for Average tumor volume after starting drug administration, Day 4: Day 4, compound A 25 mg/kg oral once a day; for Average tumor volume after starting drug administration, Day 7: Day 7, compound A 25 mg/kg oral once a day; for Average tumor volume after starting drug administration, Day 11: Day 11, compound A 25 mg/kg oral once a day; for Average tumor volume after starting drug administration, Day 14: Day 14, compound A 25 mg/kg oral once a day
[3] = tested on: human-derived breast cancer cell line MCF-7-hCYP19A1; assay: Antitumor effect of compound A and letrozole on subcutaneously transplanted MCF-7-hCYP19A1 tumor in ovariectomized BALB/c nude mice; assay type: in vivo; settings: letrozole 0.01 mg/mouse, or both, oral once a day; for Average tumor volume after starting drug administration, Day 0: Day 0, compound A 25 mg/kg; for Average tumor volume after starting drug administration, Day 4: Day 4, compound A 25 mg/kg; for Average tumor volume after starting drug administration, Day 7: Day 7, compound A 25 mg/kg; for Average tumor volume after starting drug administration, Day 11: Day 11, compound A 25 mg/kg; for Average tumor volume after starting drug administration, Day 14: Day 14, compound A 25 mg/kg
[4] = Table 4, anastrozole 10,000 nmol/L or both
[5] = Table 5, anastrozole 2,000 nmol/L or both
[6] = Table 3, letrozole 2,000 nmol/L or both

Compound	Emission value (count per second) [1, 4]	Emission value (count per second) [1, 5]	Average tumor volume after starting drug administration, Day 0 [2] [mm^3]	Average tumor volume after starting drug administration, Day 4 [2] [mm^3]	Average tumor volume after starting drug administration, Day 7 [2] [mm^3]	Average tumor volume after starting drug administration, Day 11 [2] [mm^3]	Average tumor volume after starting drug administration, Day 14 [2] [mm^3]	Emission value (count per second) [1, 6]	Average tumor volume after starting drug administration, Day 0 [3] [mm^3]	Average tumor volume after starting drug administration, Day 4 [3] [mm^3]	Average tumor volume after starting drug administration, Day 7 [3] [mm^3]	Average tumor volume after starting drug administration, Day 11 [3] [mm^3]	Average tumor volume after starting drug administration, Day 14 [3] [mm^3]
CC(C)(C#N)c1cc(Cn2cncn2)cc(C(C)(C)C#N)c1 [Anastrozole, anastrozole]	1,443,072 count per second	1,357,941 count per second	–	–	–	–	–	–	–	–	–	–	–
CNC(=O)n1ccc2cc(Oc3ccnc(NC(=O)c4ccc(C5CCN(CCO)CC5)cc4)c3)c(OCCOC)cc21 [Compound A, 5-((2-(4-(1-(2-Hydroxyethyl)piperidin-4-yl)benzamide)pyridin-4-yl)oxy)-6-(2-methoxyethoxy)-N-methyl-1H-indole-1-carboxamide]	1,157,051 count per second	1,157,051 count per second	148.6	192.6	211.2	216.5	264.3	1,242,509 count per second	130.7	155.5	182.4	224.4	267.5
C[C@]12CC[C@@H]3c4ccc(O)cc4C[C@@H](CCCCCCCCC[S+]([O-])CCCC(F)(F)C(F)(F)F)[C@H]3[C@@H]1CC[C@@H]2O (some centres unmarked) [Fulvestrant, fulvestrant]	–	–	148.7	172.2	208.2	207.4	237.6	–	–	–	–	–	–
N#Cc1ccc(C(c2ccc(C#N)cc2)n2cncn2)cc1 [Letrozole, letrozole]	–	–	–	–	–	–	–	1,410,920 count per second	132.4	147.3	140.6	159.6	162.0
